Assay results published in patent US20260042764A1, “COMPOSITIONS AND METHODS FOR INHIBITION OF KRAS” (TheRas, Inc., priority 2022, published 2026).

What was measured:
GP2d cells (KRAS G12D) = assay: Cell-based pERK HTRF assay in GP2d cell (Biological Example 2); conditions: GP2d, GP2d (KRAS G12D) cells, pERK HTRF
Procedure, shortened: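 Phospho-ERK in lysed cells was detected by HTRF using Eu cryptate and d2 antibodies, read between 4 and 24 h at room temperature. Prior to lysis, KRAS G12D GP2d cells, seeded the day before in DMEM with 10% FBS, were exposed to compounds for 60 min. Compounds were tested as 9-point half-log curves from 1 μM or 100 nM top, with 0.25% DMSO.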

[1] = target: T1, Avi-KRAS G12D (1-169) GppNHp/RAF1 RBD-3xFLAG (52-151) (Homo sapiens, UniProt P01116, G12D); assay: Raf1-KRAS G12D-GppNHP disruption HTRF assay (Biological Example 1); format: binding
T1 construct: Avi-KRAS G12D (1-169)
Procedure, shortened: (§1)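 Measured with a KRAS/RAF1 HTRF assay at pH 7.5 in 10% DMSO, with two 1 h room-temperature incubations with shaking.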

[2] = target: T2, Avi-KRAS WT (1-169) GppNHp/RAF1 RBD-3xFLAG (52-151) (Homo sapiens, UniProt P01116); assay: Raf1-KRAS WT-GppNHP disruption HTRF assay (Biological Example 1); format: binding
T2 construct: Avi-KRAS WT (1-169)
Procedure, shortened: as §1

SW620 cells (KRAS G12V) = assay: Cell-based pERK HTRF assay in SW620 cell (Biological Example 4); conditions: Homo sapiens, SW-620, SW620 (KRAS G12V) cells, pERK HTRF
Procedure, shortened: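 SW620 cells were treated for 4 h with compound in a 9-point half-log series from 1 μM top (0.25% DMSO), then lysed. Phospho-ERK was detected by HTRF with d2 and Eu cryptate antibodies after 4–24 h at room temperature, read at 615 nm emission.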

[3] = target: T3, Avi-KRAS G12V (1-169) GppNHp/RAF1 RBD-3xFLAG (52-151) (Homo sapiens, UniProt P01116, G12V); assay: Raf1-KRAS G12V-GppNHP disruption HTRF assay (Biological Example 1); format: binding
T3 construct: Avi-KRAS G12V (1-169)
Procedure, shortened: as §1

[4] = target: T4, Avi-KRAS G12R (1-169) GppNHp/RAF1 RBD-3xFLAG (52-151) (Homo sapiens, UniProt P01116, G12R); assay: Raf1-KRAS G12R-GppNHP disruption HTRF assay (Biological Example 1); format: binding
T4 construct: Avi-KRAS G12R (1-169)
Procedure, shortened: as §1

[5] = KRAS G12D, GppNHp-loaded, class symbols
[6] = KRAS WT, GppNHp-loaded, class symbols
[7] = KRAS G12V, GppNHp-loaded, class symbols
[8] = KRAS G12R, GppNHp-loaded, class symbols

T2 sequence (P01116 1-169 isoform P01116-2): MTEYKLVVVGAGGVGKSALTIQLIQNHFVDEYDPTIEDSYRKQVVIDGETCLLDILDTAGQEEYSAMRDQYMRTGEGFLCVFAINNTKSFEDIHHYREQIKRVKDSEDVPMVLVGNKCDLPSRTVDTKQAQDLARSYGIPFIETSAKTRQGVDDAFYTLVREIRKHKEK
T1 sequence (P01116 1-169 isoform P01116-2 G12D): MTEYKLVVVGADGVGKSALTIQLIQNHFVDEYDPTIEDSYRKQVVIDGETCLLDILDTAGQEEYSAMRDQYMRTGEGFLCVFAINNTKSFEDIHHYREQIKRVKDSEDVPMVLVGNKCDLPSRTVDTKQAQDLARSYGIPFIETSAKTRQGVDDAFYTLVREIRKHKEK
T4 sequence (P01116 1-169 isoform P01116-2 G12R): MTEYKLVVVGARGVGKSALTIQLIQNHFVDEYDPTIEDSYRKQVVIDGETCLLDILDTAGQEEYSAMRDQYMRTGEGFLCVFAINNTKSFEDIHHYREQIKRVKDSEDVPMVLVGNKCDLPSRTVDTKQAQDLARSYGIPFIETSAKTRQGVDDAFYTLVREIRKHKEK
T3 sequence (P01116 1-169 isoform P01116-2 G12V): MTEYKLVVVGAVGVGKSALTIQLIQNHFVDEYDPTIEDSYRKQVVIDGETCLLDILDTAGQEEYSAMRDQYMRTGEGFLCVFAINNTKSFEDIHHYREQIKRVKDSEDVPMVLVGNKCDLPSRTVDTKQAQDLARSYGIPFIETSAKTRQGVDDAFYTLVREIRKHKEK

SMILES | IC50 (GP2d cells (KRAS G12D)) | IC50 ([1]; KRAS G12D-GppNHp/RAF1 RBD HTRF) | IC50 ([2]; KRAS WT-GppNHp/RAF1 RBD HTRF) | IC50 (SW620 cells (KRAS G12V)) | IC50 ([3]; KRAS G12V-GppNHp/RAF1 RBD HTRF) | IC50 ([4]; KRAS G12R-GppNHp/RAF1 RBD HTRF) | IC50 (GP2d cells (KRAS G12D); class symbols) | IC50 [1, 5] | IC50 [2, 6] | IC50 (SW620 cells (KRAS G12V); class symbols) | IC50 [3, 7] | IC50 [4, 8]
CCN(c1nc(OC[C@@]23CCCN2C[C@H](F)C3)nc2c(F)c(-c3ccc(F)c4sc(N)c(C#N)c34)c(C(F)(F)F)cc12)[C@H]1CCN(C(=O)N2CCOCC2)C1 (atropisomer, axis not shown) [Compound 553] | < 100 nM | < 100 nM | < 100 nM | < 100 nM | < 100 nM | < 100 nM |  |  |  |  |  | 
CCN(c1nc(OC[C@@]23CCCN2C[C@H](F)C3)nc2c(F)c(-c3ccc(F)c4sc(N)c(C#N)c34)c(C(F)(F)F)cc12)[C@H]1CCN(C(=O)CCC#N)C1 (atropisomer, axis not shown) [Compound 555] | < 100 nM | < 100 nM | < 100 nM | < 100 nM | < 100 nM | < 100 nM |  |  |  |  |  | 
CCN(c1nc(OC[C@@]23CCCN2C[C@H](F)C3)nc2c(F)c(-c3ccc(F)c4sc(N)c(C#N)c34)c(C(F)(F)F)cc12)[C@H]1CCN(C(=O)OC(C)C)C1 (atropisomer, axis not shown) [Compound 556] | < 100 nM | < 100 nM | 100 to 1000 nM | < 100 nM | 100 to 1000 nM | < 100 nM |  |  |  |  |  | 
CCN(c1nc(OC[C@@]23CCCN2C[C@H](F)C3)nc2c(F)c(-c3ccc(F)c4sc(N)c(C#N)c34)c(C(F)(F)F)cc12)[C@H]1C[C@@H](C)N(C(=O)OC)C1 (atropisomer, axis not shown) [Compound 557] | < 100 nM | < 100 nM | 100 to 1000 nM | < 100 nM | 100 to 1000 nM | < 100 nM |  |  |  |  |  | 
CCN(c1nc(OC[C@@]23CCCN2C[C@H](F)C3)nc2c(F)c(-c3ccc(F)c4sc(N)c(C#N)c34)c(C(F)(F)F)cc12)[C@H]1C[C@@H](C)N(C(=O)N(C)C)C1 (atropisomer, axis not shown) [Compound 558] | < 100 nM | 100 to 1000 nM | 100 to 1000 nM | < 100 nM | 100 to 1000 nM | 100 to 1000 nM |  |  |  |  |  | 
CCN(c1nc(OC[C@@]23CCCN2C[C@H](F)C3)nc2c(F)c(-c3ccc(F)c4sc(N)c(C#N)c34)c(C(F)(F)F)cc12)[C@H]1CCN(C(=O)C2(F)CC2)C1 (atropisomer, axis not shown) [Compound 559] | < 100 nM | < 100 nM | 100 to 1000 nM | < 100 nM | < 100 nM | < 100 nM |  |  |  |  |  | 
CCN(c1nc(OC[C@@]23CCCN2C[C@H](F)C3)nc2c(F)c(-c3ccc(F)c4sc(N)c(C#N)c34)c(C(F)(F)F)cc12)[C@H]1CCN(C(=O)COC)C1 (atropisomer, axis not shown) [Compound 561] | < 100 nM | < 100 nM | < 100 nM | < 100 nM | < 100 nM | < 100 nM |  |  |  |  |  | 
CCN(c1nc(OC[C@@]23CCCN2C[C@H](F)C3)nc2c(F)c(-c3ccc(F)c4sc(N)c(C#N)c34)c(C(F)(F)F)cc12)[C@H]1CCN(C(=O)C(C)(C)C)C1 (atropisomer, axis not shown) [Compound 562] | < 100 nM | < 100 nM | < 100 nM | < 100 nM | 100 to 1000 nM | < 100 nM |  |  |  |  |  | 
CC[C@@H](C)C(=O)N1CC[C@H](N(CC)c2nc(OC[C@@]34CCCN3C[C@H](F)C4)nc3c(F)c(-c4ccc(F)c5sc(N)c(C#N)c45)c(C(F)(F)F)cc23)C1 (atropisomer, axis not shown) [Compound 563] | < 100 nM | < 100 nM | 100 to 1000 nM | < 100 nM | 100 to 1000 nM | 100 to 1000 nM |  |  |  |  |  | 
CCN(c1nc(OC[C@@]23CCCN2C[C@H](F)C3)nc2c(F)c(-c3ccc(F)c4sc(N)c(C#N)c34)c(C(F)(F)F)cc12)[C@H]1CCN(C(=O)[C@@H](C)OC)C1 (atropisomer, axis not shown) [Compound 570] |  |  |  |  |  |  | < 100 nM | < 100 nM | < 100 nM | < 100 nM | < 100 nM | < 100 nM
CCN(c1nc(OC[C@@]23CCCN2C[C@H](F)C3)nc2c(F)c(-c3ccc(F)c4sc(N)c(C#N)c34)c(C(F)(F)F)cc12)[C@H]1CCN(C(=O)[C@H](C)OC)C1 (atropisomer, axis not shown) [Compound 571] |  |  |  |  |  |  | < 100 nM | < 100 nM | < 100 nM | < 100 nM | < 100 nM | < 100 nM
CCN(c1nc(OC[C@@]23CCCN2C[C@H](F)C3)nc2c(F)c(-c3ccc(F)c4sc(N)c(C#N)c34)c(C(F)(F)F)cc12)[C@H]1CCN(C(=O)N2CCC2)C1 (atropisomer, axis not shown) [Compound 574] |  |  |  |  |  |  | < 100 nM | < 100 nM | < 100 nM | < 100 nM | < 100 nM | < 100 nM
CCN(c1nc(OC[C@@]23CCCN2C[C@H](F)C3)nc2c(F)c(-c3ccc(F)c4sc(N)c(C#N)c34)c(C(F)(F)F)cc12)[C@H]1CCN(C(=O)C2CCN(C(C)=O)CC2)C1 (atropisomer, axis not shown) [Compound 575] |  |  |  |  |  |  | < 100 nM | < 100 nM | < 100 nM | < 100 nM | < 100 nM | < 100 nM
CC[C@H](C)C(=O)N1CC[C@H](N(CC)c2nc(OC[C@@]34CCCN3C[C@H](F)C4)nc3c(F)c(-c4ccc(F)c5sc(N)c(C#N)c45)c(C(F)(F)F)cc23)C1 (atropisomer, axis not shown) [Compound 576] |  |  |  |  |  |  | < 100 nM | < 100 nM | < 100 nM | < 100 nM | 100 to 1000 nM | < 100 nM
CCN(c1nc(OC[C@@]23CCCN2C[C@H](F)C3)nc2c(F)c(-c3ccc(F)c4sc(N)c(C#N)c34)c(C(F)(F)F)cc12)[C@H]1CCN(C(=O)C2CCOCC2)C1 (atropisomer, axis not shown) [Compound 578] |  |  |  |  |  |  | < 100 nM | < 100 nM | < 100 nM | < 100 nM | < 100 nM | < 100 nM
CCN(c1nc(OC[C@@]23CCCN2C[C@H](F)C3)nc2c(F)c(-c3ccc(F)c4sc(N)c(C#N)c34)c(C(F)(F)F)cc12)[C@H]1CCN(C(=O)C2COC2)C1 (atropisomer, axis not shown) [Compound 580] |  |  |  |  |  |  | < 100 nM | < 100 nM | < 100 nM | < 100 nM | < 100 nM | < 100 nM
CCN(C)C(=O)N1CC[C@H](N(CC)c2nc(OC[C@@]34CCCN3C[C@H](F)C4)nc3c(F)c(-c4ccc(F)c5sc(N)c(C#N)c45)c(C(F)(F)F)cc23)C1 (atropisomer, axis not shown) [Compound 582] |  |  |  |  |  |  | < 100 nM | < 100 nM | < 100 nM | < 100 nM | < 100 nM | < 100 nM
